The source of these data is US5633263A, “Linear somatostatin analogs” (The Administrators of the Tulane Educational Fund, priority 1994, dated 1997).

Molecules are shown by their SMILES. Where a SMILES comes first, the peptide text is derived from it. [ ]: non-standard residue; d: D form.

The test system of test [1] is [125I-Tyr11]SRIF-14 binding to crude membrane preparations from human small cell lung carcinoma (NCI-H69) cells. Nature of the test: Inhibition of [125I]SRIF-14 binding, SCLC membranes. To be noted: [125I]SRIF-14 approximately 0.05 nM, read-out: IC50 (nM) SCLC, inhibition of I125 SRIF-14 binding. As for the experimental part: (§1) Crude membrane preparations were obtained from rat pancreas, cerebral cortex, or human small cell lung carcinoma (NCI-H69) cells by homogenizing (Polytron, setting 6, 15 sec) the tissues or cells in ice-cold 50 mM Tris-HCl and centrifuging twice at 39,000× g (10 min), with an intermediate resuspension in fresh buffer. The final pellets were resuspended in 10 mM Tris-HCl for assay. Aliquots of the membrane preparation were incubated for 25 min at 30° C. with labeled somatotropin-release-inhibiting factor, [^125 I-Tyr^11 ] SRIF-14 (2000 Ci/mmol, Amersham Corp.), in 50 mM HEPES (pH 7.4) containing bovine serum albumin (10 mg/ml; fraction V, Sigma Chem.), MgCl2 (5mM), Trasylol (200 KIU/ml), bacitracin (0.02 mg/ml), and phenylmethylsulphonyl fluoride (0.02 mg/ml). The final assay volume was 0.3 ml. The incubations were terminated by rapid filtration through Whatman GF/C filters (pre-soaked in 0.3% polyethylenimine) under reduced pressure. Each tube and filter were then washed three times with 5 ml aliquots of ice-cold buffer. Specific binding was defined as the total [^125 I]SRIF-14 bound minus that bound in the presence of 200 nM unlabelled SRIF-14.
(§2) Table 1 gives results of inhibition of [^125 I]SRIF-14 binding by linear peptides of the invention. The concentration of [^125 I]SRIF-14 was approximately 0.05 nM. […]

For test [2], the target named is [125I-Tyr11]SRIF-14 binding to crude membrane preparations from rat cerebral cortex. Description: Inhibition of [125I]SRIF-14 binding, brain membranes. The note with it: [125I]SRIF-14 approximately 0.05 nM, read-out: IC50 (nM) Brain, inhibition of I125 SRIF-14 binding. The protocol: as §1, §2
Test [3] deals with [125I-Tyr11]SRIF-14 binding to crude membrane preparations from rat pancreas. Description: Inhibition of [125I]SRIF-14 binding, pancreas membranes. To be noted: for IC50: rat pancreas membranes, [125I]SRIF-14 approximately 0.05 nM, read-out: IC50 (nM) Pancreas, inhibition of I125 SRIF-14 binding. The protocol: as §1
Table 1 gives results of inhibition of [^125 I]SRIF-14 binding by linear peptides of the invention. The concentration of [^125 I]SRIF-14 was approximately 0.05 nM. (Values in parenthesis indicate the number of independent determinations.) The IC50 (concentration of analog resulting is 50% competitive inhibition) in nM values are indicated for pancreas, small cell lung carcinoma (SCLC), and brain. […] Peptide DC-23-85, which is not within the invention, inhibits the binding of I^125 SRIF-14 only poorly.

For the molecule `C[C@@H](O)[C@H](NC(=O)[C@H](Cc1ccccc1)NC(=O)[C@@H](NC(=O)[C@H](CCCCN)NC(=O)[C@@H](Cc1c[nH]c2ccccc12)NC(=O)[C@H](Cc1ccccc1)NC(=O)[C@H](Cc1ccccc1)NC(=O)[C@H](N)Cc1ccccc1)[C@@H](C)O)C(N)=O` [BIM-23052/DC-23-99, D-Phe-Phe-Phe-D-Trp-Lys-Thr-Phe-Thr-NH2] (H-[dF]FF[dW]KTFT-NH2), the IC50 – broadly, the concentration that gives 50% inhibition – worked out at 1.2 nM in test [1], 7.3 nM in test [2] and 9.4 nM in test [3]. In addition, the “inhibiting the binding of I125 SRIF-14 (in words)” value in test [3] (summary in words of Table 1 (pancreas, SCLC, brain)) is listed as “particularly effective”.

For the molecule `C[C@H](N)C(=O)NCC(=O)N[C@H]1CSSC[C@@H](C(=O)O)NC(=O)[C@H](CO)NC(=O)[C@H]([C@@H](C)O)NC(=O)[C@H](Cc2ccccc2)NC(=O)[C@H]([C@@H](C)O)NC(=O)[C@H](CCCCN)NC(=O)[C@H](Cc2c[nH]c3ccccc23)NC(=O)[C@H](Cc2ccccc2)NC(=O)[C@H](Cc2ccccc2)NC(=O)[C@H](CC(N)=O)NC(=O)[C@H](CCCCN)NC1=O` [Somatostatin, Ala-Gly-Cys-Lys-Asn-Phe-Phe-Trp-Lys-Thr-Phe-Ser-OH], the IC50 came to 4.2 nM in test [1], 0.53 nM in test [2] and 0.53 nM in test [3].
